Tests used:
ALX/FPR2 receptor = biological target: T1, ALX/FPR2 receptor (Homo sapiens, UniProt P25090); test: Intracellular calcium flux in FPR2+/Gαq+ stably transfected HEK-293; assay type: cell-based; conditions: for Emax: HEK293, % delta calcium signal relative to peak of full agonist (1), 10 pM–100 nM, read-out: Efficacy Emax (%)
T1 construct: host or cells: HEK-293, stably double-transfected FPR2+/Gαq+
T1 sequence (P25090 1-351): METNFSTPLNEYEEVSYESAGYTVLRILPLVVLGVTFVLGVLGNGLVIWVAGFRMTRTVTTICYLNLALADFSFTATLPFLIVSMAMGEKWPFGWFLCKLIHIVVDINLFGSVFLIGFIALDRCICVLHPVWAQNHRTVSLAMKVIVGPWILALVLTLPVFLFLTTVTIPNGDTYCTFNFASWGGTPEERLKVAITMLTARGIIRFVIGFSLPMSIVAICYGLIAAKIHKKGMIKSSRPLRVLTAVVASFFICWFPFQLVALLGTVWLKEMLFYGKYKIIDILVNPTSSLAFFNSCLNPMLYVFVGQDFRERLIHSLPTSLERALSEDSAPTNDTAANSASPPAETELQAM
Experimental: HEK-293-transfected and wt cell lines were cultured in Dulbecco’s modified Eagle’s medium (DMEM Glutamax, 4 mM L-glu and 4.50 g/L glucose—Gibco, Ireland) supplemented with heat-inactivated (30 min at 56C) 10% (v/v) FBS (Invitrogen, U.K.), 50 U penicillin, and 50 μg of streptomycin (Invitrogen, U.K.). As stably double-transfected FPR2^+/Gαq^+ HEK-293 cells were resistant to Geneticin and Hygromycin, these were used as selective antibiotics (500 and 100 μg/mL, respectively) to maintain the stable double transfection with the ALX/FPR2 receptor and the Gαq subunit coupled to it. Immediately prior to calcium measurement, fluorescently labeled cells were treated with 10^–11/–9/–7M LXA41 or sLXms using an injection system coupled to the fluorescence reader.
To explore the mechanism of action through which the sLXm lead compound exerts the effects seen here, its interaction with the ALX/FPR2 receptor was investigated and agonist-induced intracellular calcium transients were measured using an engineered cell line stably overexpressing the ALX/FPR2 receptor and the Gαq subunit coupled to it (Figure S6). Wild-type HEK cells were used as controls, to verify the specificity of the agonism toward ALX/FPR2, as previously reported.[36] Briefly, prior to cell plating, sterile 96-well plates (black-sided with optically clear glass flat bottoms) were PDL-coated overnight. Subsequently, 2 × 10^5 wild-type cells and overexpressed cells/well were cultured for 18 h in DMEM complete media (containing Ca^2+ and Mg^2+) to facilitate adherence prior to labeling with Fluo-4 dye. After 1 h of incubation at 37 °C with Fluo-4, cells were gently washed twice and placed in 100% Hanks’ balanced salt solution (HBSS; 37 °C) before reading the fluorescence (485/535 nm), using a spectrophotometer conjugated with an injection system (Clariostar BMG LABTECH plate reader), allowing addition to the cells of controls ([…], 2 nM Wp, a synthetic ALX/FPR2 agonist) or experimental treatments [10 pM, 1 nM, and 100 nM LXA41 or (R)-6].
During calcium flux measurement, the kinetic steps involved were the following: the baseline fluorescent signal was measured for 20 s, followed by 100 s immediately after agonist injection. Subsequently, 2% Triton-X-100 was added to lyse the cells (monitoring for 20 s the maximal release of calcium ions in the extracellular environment) and, finally, 25 mM tetraacetic acid (EGTA) was added to chelate calcium ions (monitoring for additional 20 s the minimal detection of calcium ions in the extracellular environment) (Figure S7).
(§1) The “coding” of the heat-map indicates the arbitrary criteria to assign points to each single PD component (efficacy = Imax or Emax; potency = IC50 or EC50; slope = HS) to generate a final (aggregate) relative PD score. If a single PD component was greater than the reference level (x > 1), then the single-component relative score was arbitrarily set to +1 (light green) or +2 (dark green). If a single PD component was equal to the reference level (x = 1), then the single-component relative score was arbitrarily set to 0 (gray). If a single PD component was smaller than the reference level (x < 1), then the single-component relative score was arbitrarily set to −1 (light red) or −2 (dark red). If the curve of a single PD component was best fitting to a flat line (x = 0), then the single-component relative score was arbitrarily set to −4 (purple) (Table S1).

IFNγ = test: LPS-induced IFNγ release from THP-1 Lucia monocytes (multiplex electrochemiluminescence); assay type: cell-based, human; conditions: for IC50: Homo sapiens, THP-1; for IC50 / Imax, IFNγ release: LPS 50 ng/mL, 24 h; for Imax, IFNγ release: concentration–response
Experimental: LXA41 and all of the tested sLXms were dissolved in ethanol and further diluted in a culture medium (final ethanol concentration 0.1%; equivalent concentrations were used as the vehicle control). Prior to in vitro experiments, THP-1-Lucia NF-κB cells were harvested and plated at 1 × 10^5 cells/well on 96-well plates and left to settle in the incubator at 37 °C, 95% humidity, and 5% CO2, in 0.1% FBS-containing media, pretreated for 30 min with increasing doses of LXA41, sLXms (from 10^–12 to 10^–6 M), or appropriate controls, followed by stimulation with 50 ng/mL LPS for 24 h. Untreated (Unt) or vehicle-treated (Veh) cells were used as negative controls; 1 pM (1R)-5, the (1R)-epimer of the benzo-mimetic, was used as a positive control for any aromatic mimetic; and, finally, we compared the observed effects to the conventional glucocorticoid dexamethasone (Dex) treatment, at 1 μM.
After 24 h of exposure to LXA41, sLXms, or vehicle, followed by LPS stimulation (50 ng/mL), as described above, THP-1-Lucia NF-κB-cell supernatants were collected and cleared by centrifugation. Concentrations of IFN-γ, IL-1β, IL-6, IL-8, IL-10, IL-12p70, and TNF-α in culture supernatants were assessed by electro-chemi-luminescent detection, using a commercially available human 96-well plate “multiplex” (several analytes in the same well) kit for tissue culture samples, according to the manufacturers’ guidelines.
as §1

THP-1 LUCIA monocytes = test: In vitro safety study: Safety index (Si), activity versus toxicity; assay type: cell-based, human; conditions: for IC50: Homo sapiens, THP-1, highest IC50 among the LPS-challenged assays (NF-κB activity, cytokine, LDH release), read-out: Extrinsic Activity hIC50; for Safety Index TC50/IC50: ratio of intrinsic TC50 to extrinsic hIC50
Experimental: A postanalysis “safety study” was conducted on all QNX-sLXms. For each tested compound, we calculated an in vitro “Safety index” (Si) by relating its “anti-inflammatory half-maximal activity” (the highest dose among the IC50 of the extrinsic LPS-challenged phenotype: NF-κB activity, proinflammatory cytokine, and LDH release) to its intrinsic “toxicity” (expressed as the relative half-maximal LDH-associated cytotoxicity). The generated Si is potentially predictive of a translational “therapeutic” range: the higher the Si, the safer the molecule is. As summarized in Table S4, Si values from all tested compounds fall in a broad range (7–50).

SMILES	Slope HS (ALX/FPR2 receptor)	Emax (ALX/FPR2 receptor) [%]	(Aggregate) Rel. PD Score (ALX/FPR2 receptor; relative to LXA4 (1))	(Single component) Rel. Score: Rel. Sl. (ALX/FPR2 receptor; relative to LXA4 (1))	Efficacy Rel. Eff. (ALX/FPR2 receptor; relative to LXA4 (1))	Potency Rel. Pot. (ALX/FPR2 receptor; relative to LXA4 (1))	Rel. Slope (ALX/FPR2 receptor; relative to LXA4 (1))	PD score, IFNγ release (IFNγ; relative to LXA4 (1))	IC50 (THP-1 LUCIA monocytes) [nM]	Safety Index TC50/IC50 (THP-1 LUCIA monocytes)	IC50 (IFNγ) [nM]	Imax, IFNγ release (IFNγ) [%]	type of agonism at ALX/FPR2 (ALX/FPR2 receptor)	ALX/FPR2 activation lower than that induced by native LXA4 (ALX/FPR2 receptor; both at 10 pM) [%]	(Single component) Rel. Score: Rel. Eff. (ALX/FPR2 receptor; relative to LXA4 (1))
CCCCC[C@@H](O)c1c(/C=C/[C@@H](O)[C@@H](O)CCCC(=O)OC)nc(C)n1C [Compound 5, imidazolo-LXA4]	258	99 ± 17	2	2 (x ≥ 10)	0.99	1	1.72	–	–	–	–	–	–	–	–
CCCCCCC[C@H](O)c1nc2ccccc2nc1/C=C/[C@@H](O)[C@@H](O)CCCC(=O)OC [(S)-8, Methyl (5S,6R,E)-5,6-Dihydroxy-8-(3-((S)-1-hydroxyoctyl)quinoxalin-2-yl)oct-7-enoate]	–	–	–	–	–	–	–	negative PD scores	0.01	10	–	–	–	–	–
CCCCC[C@@H](O)c1nc2ccccc2nc1/C=C/[C@H]1OC(C)(C)O[C@H]1CCCC(=O)OC [(R)-17, Methyl 4-((4S,5R)-5-((E)-2-(3-((R)-1-Hydroxyhexyl)quinoxalin-2-yl)vinyl)-2,2-dimethyl-1,3-dioxolan-4-yl)butanoate]	–	–	–	–	–	–	–	–	0.01	10	–	–	–	–	–
CCCCC[C@H](O)/C=C/C=C\C=C\C=C\[C@@H](O)[C@@H](O)CCCC(=O)O [Compound 1, LXA4]	150	100	–	–	1	1	1	–	–	–	0.001	72 ± 4	full agonist	–	–
CCCCC[C@@H](O)c1nc2ccccc2nc1/C=C/[C@@H](O)[C@@H](O)CCCC(=O)OC [(R)-6, Methyl (5S,6R,E)-5,6-Dihydroxy-8-(3-((R)-1-hydroxyhexyl)quinoxalin-2-yl)oct-7-enoate]	220	–	–	1 (1 < x < 10)	0.61	1	1.46	–	0.025	20	0.001	62 ± 1	equipotent partial agonist	40	-2

Source: paper PMC8279484 (Journal of Medicinal Chemistry, 2021)
